Consider twelve compounds from PMC2821678 (Chemico-biological interactions, 2009).

Where two headings read alike, the source gives them in different places.

One series deals with SK-MEL-28 melanoma cells. Kind of series: MTT cell viability, SK-MEL-28. Conditions: read-out: IC50 (48 h) SK-MEL-28. It is filed as cell-based, human.
The next series deals with Mushroom tyrosinase. Kind of series: Tyrosinase mediated GSH depletion assay. The format is biochemical. Conditions: for % GSH depletion (2 h) Tyrosinase/O2: 2 h incubation.
The next series concerns B16-F0 melanoma cells. Kind of series: MTT cell viability, B16-F0. It is filed as cell-based, murine. The note with it: read-out: IC50 (48 h) B16-F0.
Series [1] has as its system tyrosinase shRNA transfected SK-MEL-28 cells. Nature of the series: Drug sensitivity assay using tyrosinase shRNA transfected cells. The note with it: 4-HA 50 μM. The format is cell-based, human.
For series [2] the following is noted: clinical trials terminated; cited from earlier work.

With 2-hydroxyacetophenone, the IC50 with SK-MEL-28 melanoma cells (48 h, MTT) came to 4 mM.
Regarding `COc1ccccc1O` [2-hydroxyanisole], the “% GSH depletion (2 h) Tyrosinase/O2” value in the series on Mushroom tyrosinase worked out at 25±2%. The IC50 in the series with B16-F0 melanoma cells (Mus musculus, B16F0, 48 h) is 0.051 mM; in the series on SK-MEL-28 melanoma cells (Homo sapiens, SK-MEL-28, 48 h) it was 2.2 mM.
On the same counts, the results for `O=C(O)c1ccccc1O` [2-hydroxybenzoic acid] are 0%, 5.2 mM and 5 mM.
The like results for `OCc1ccccc1O` [2-hydroxybenzyl alcohol] were, in that order, 0%, 1.1 mM and 1.5 mM.
With `Cc1ccccc1O` [2-hydroxytoluene], the IC50 in the series with B16-F0 melanoma cells (Mus musculus, B16F0, 48 h) was determined as 3.2 mM; in the series on SK-MEL-28 melanoma cells (Homo sapiens, SK-MEL-28, 48 h), 3.2 mM.
For `CC(=O)c1cccc(O)c1` [3-hydroxyacetophenone], the IC50 stood at 1.4 mM with B16-F0 melanoma cells (48 h, MTT) and 2 mM in the series with SK-MEL-28 melanoma cells (48 h, MTT).
With `COc1cccc(O)c1` [3-hydroxyanisole], the “% GSH depletion (2 h) Tyrosinase/O2” value in the series with Mushroom tyrosinase is given as 24±3%. The 50% inhibitory concentration (IC50) in the series on B16-F0 melanoma cells (Mus musculus, B16F0, 48 h) was 0.043 mM; with SK-MEL-28 melanoma cells (Homo sapiens, SK-MEL-28, 48 h), 3.4 mM.
On to `O=C(O)c1cccc(O)c1` [3-hydroxybenzoic acid], for which the half-inhibitory concentration (IC50) is 1.8 mM in the series on B16-F0 melanoma cells (Mus musculus, B16F0, 48 h) and 2.3 mM with SK-MEL-28 melanoma cells (Homo sapiens, SK-MEL-28, 48 h).
As for `OCc1cccc(O)c1` [3-hydroxybenzyl alcohol], the “% GSH depletion (2 h) Tyrosinase/O2” value in the series on Mushroom tyrosinase is recorded as 29±3%. Moreover, the IC50 in the series with B16-F0 melanoma cells (Mus musculus, B16F0, 48 h) worked out at 4.6 mM; in the series with SK-MEL-28 melanoma cells (Homo sapiens, SK-MEL-28, 48 h) it was 5 mM.
`Cc1cccc(O)c1` [3-hydroxytoluene]: the half-inhibitory concentration (IC50) with B16-F0 melanoma cells (Mus musculus, B16F0, 48 h) was found to be 2.1 mM; in the series with SK-MEL-28 melanoma cells (Homo sapiens, SK-MEL-28, 48 h), 2.5 mM.
With `CC(=O)c1ccc(O)cc1` [4-hydroxyacetophenone], the IC50 in the series with B16-F0 melanoma cells (Mus musculus, B16F0, 48 h) was 3 mM; in the series with SK-MEL-28 melanoma cells (Homo sapiens, SK-MEL-28, 48 h) it was 8 mM.
Consider `COc1ccc(O)cc1` [4-hydroxyanisole], for which, in the series with Mushroom tyrosinase (measurement conducted at 30 min), the “% GSH depletion Tyrosinase/O2” value is 95±3 %. Moreover, the IC50 in the series on B16-F0 melanoma cells (Mus musculus, B16F0, 48 h) was 0.06 mM; with SK-MEL-28 melanoma cells (Homo sapiens, SK-MEL-28, 48 h) it was 0.05 mM. The “cell toxicity when tyrosinase was silenced by shRNA plasmid” value in series [1] was “significantly less cell toxicity”. Besides, in series [2], the “liver toxicity in clinical trials” value is given as “serious liver toxicity”.
